Data: patent US7776897B2, “Triazole derivative or salt thereof” (Astellas Pharma Inc., priority 2004, dated 2010)

Legend:
[1] = target: human recombinant 11β-HSD1 (Homo sapiens, UniProt P28845); assay: Test for measuring human 11β-HSD1 inhibitory activity (HTRF cortisol detection); format: biochemical; conditions: human recombinant enzyme, 200 nM cortisone, 40 μM NADPH, pH 6.6, room temperature 1 hour; average of 3 wells
Protocol: (§1) (1) Test for Measuring Human 11β-HSD1/11β-HSD2 Inhibitory Activity
(§2) The procedure for measuring human 11β-HSD1/11β-HSD2 inhibitory activity is as follows. The enzymatic reaction and measurement were performed using a 384-well plate. The reaction was carried out by adding a test compound in various concentrations to a reaction solution containing a 10 mM phosphate buffer solution (pH 6.6), 200 nM cortisone, 40 μM reduced nicotinamide adenine dinucleotide phosphate (NADPH), and human recombinant 11β-HSD1 and then incubating the mixture at room temperature for 1 hour (10 μl/well). The test compound was dissolved in dimethyl sulfoxide (DMSO) to prepare a sample so that the DMSO concentration in the reaction solution became 1%. After the enzymatic reaction, an enzymatic inhibitory activity was measured by detecting cortisol using homogeneous time-resolved fluorescence (HTRF). XL-665-labeled cortisol containing 400 μM carbenoxolone and cryptate-labeled cortisol antibody (CIS Bio International) were added in each amount of 5 μl/well, followed by incubation at room temperature for 2 hours. Then, fluorescence intensity was measured using a fluorophotometer (product name: Discovery, PerkinElmer) and an enzymatic inhibitory activity was calculated based on two-wavelength fluorescence intensity ratio (665 nm/620 nm).
(§3) The results of the measurement were calculated as an average of the values for 3 wells obtained under the same conditions.

[2] = target: T1, human recombinant 11β-HSD2 (Homo sapiens, UniProt P80365); assay: Test for measuring human 11β-HSD2 inhibitory activity (HTRF cortisol detection); format: biochemical; conditions: human recombinant enzyme, 200 nM cortisol, 200 μM NAD, pH 8.0, 37° C. 2 hours; average of 3 wells
T1 sequence (P80365 1-405): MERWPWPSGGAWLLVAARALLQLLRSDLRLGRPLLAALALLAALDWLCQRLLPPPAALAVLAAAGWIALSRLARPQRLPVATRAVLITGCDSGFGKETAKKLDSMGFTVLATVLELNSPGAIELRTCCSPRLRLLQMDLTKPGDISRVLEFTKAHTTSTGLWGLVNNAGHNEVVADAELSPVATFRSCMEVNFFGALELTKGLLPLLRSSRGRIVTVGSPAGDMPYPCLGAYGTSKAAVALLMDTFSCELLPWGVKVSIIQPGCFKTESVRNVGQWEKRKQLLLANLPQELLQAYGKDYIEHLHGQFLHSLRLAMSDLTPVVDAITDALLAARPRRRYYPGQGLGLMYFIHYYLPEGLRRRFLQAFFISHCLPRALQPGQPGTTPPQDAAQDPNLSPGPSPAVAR
Protocol: as §1, §2
The measurement of 11β-HSD2 inhibitory activity was performed in the same manner as in the measurement of 11β-HSD1 inhibitory activity except for enzymatic reaction conditions. The enzymatic reaction was carried out by adding a test compound in various concentrations to a reaction solution containing a 40 mM tris-hydrochloride buffer solution (Tris-HCl) (pH 8.0), 200 nM cortisol, 200 μM nicotinamide adenine dinucleotide (NAD), and human recombinant 11β-HSD2 and then incubating the mixture at 37° C. for 2 hours (10 μl/well).
as §3

ob/ob mice = assay: ob/ob mouse blood-glucose lowering test; format: in vivo; conditions: male ob/ob mice, 30 mg/kg bid orally for 9 days, measured 12 hours after final administration, non-fasting, n=6
Protocol: (2) ob/ob Mouse Blood-Glucose Lowering Test
A compound solution was prepared using 6% 2-hydroxypropyl-p-cyclodextrin as a solvent. Using 8 weeks-old male ob/ob mice (blood-glucose level of 300 mg or more), blood-glucose levels were measured under non-fasting conditions and then the mice were divided into groups so that the blood-glucose levels became even among the groups. The test compound was orally administered twice per day repeatedly for 9 days (30 mg/kg, bid) and a blood-sugar level was measured 12 hours after final administration (n=6). The blood-glucose level was measured by subjecting a collected blood to protein-removing treatment and then conducting colorimetric quantitative determination of a glucose level (mg/dL) in the supernatant.

human recombinant 11β-HSD1, sequence (P28845 whole entry): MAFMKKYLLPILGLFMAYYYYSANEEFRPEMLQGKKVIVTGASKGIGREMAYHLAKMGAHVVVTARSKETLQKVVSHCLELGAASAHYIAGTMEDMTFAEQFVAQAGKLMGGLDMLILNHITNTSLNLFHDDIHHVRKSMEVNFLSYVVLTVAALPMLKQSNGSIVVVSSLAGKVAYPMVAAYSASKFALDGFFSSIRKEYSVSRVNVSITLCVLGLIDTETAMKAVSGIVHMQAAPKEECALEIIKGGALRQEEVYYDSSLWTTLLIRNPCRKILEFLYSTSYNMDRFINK

Row | Structure (SMILES) | IC50 [1] [µM] | IC50 [2] [µM] | blood-glucose lowering action (ob/ob mice) [%]
1 | c1csc(C2(c3nnc4n3CCCCC4)CCCC2)c1 [Example 60] | 0.013 | > 3 | 
2 | Cn1cccc1C(C)(C)c1nnc(-c2ccccc2Cl)n1C [Example 158] | 0.018 | > 3 | 
3 | c1csc(C2(c3nnc4n3CCCCCC4)CCCC2)c1 [Example 68] | 0.0044 | > 1 | 32
4 | Cn1c(-c2ccccc2Cl)nnc1C(C)(C)NC(=O)c1ccccc1 [Example 174] | 0.06 |  | 

Now from value to molecule, other results behind:

Row | IC50 [1] [µM] | IC50 [2] [µM] | Structure (SMILES) | blood-glucose lowering action (ob/ob mice) [%]
5 | 0.015 |  | CN(C1(c2nnc(-c3ccccc3Cl)n2C)CCCC1)S(=O)(=O)c1ccccc1 [Example 115] | 
6 | 0.0066 | > 1 | CC(C)(c1cccs1)c1nnc2n1CCCCCC2 [Example 100] | 
7 | 0.0053 | > 3 | Clc1ccc(C2(c3nnc4n3CCCCC4)CCCC2)s1 [Example 62] | 
